Patent US20220296628A1, “RNA COMBINATIONS AND COMPOSITIONS WITH DECREASED IMMUNOSTIMULATORY PROPERTIES” (CureVac AG, priority 2019, published 2022)

Key:
[1] = test system: human peripheral blood mononuclear cells (PBMCs); assay: PBMC stimulation: DOTAP co-transfection of immunostimulatory non-coding RNA (RNAdjuvant) with oligonucleotide, cytokines by CBA; format: cell-based; settings: DOTAP co-transfection with RNAdjuvant 1 μg/ml, oligonucleotide 0.25 μg/ml (25% weight), supernatant 24 hours, compared to immunostimulatory non-coding RNA only (FIG. 1A)
Method: Human peripheral blood mononuclear cells (PBMCs) were isolated from heparinized blood of healthy volunteers by standard Ficoll-Hypaque density gradient centrifugation (Ficoll 1.078 g/ml). PBMCs were re-suspended in RPMI 1640 supplemented with 10% heat-inactivated FCS. After counting, cells are re-suspended at 50 million cells per ml in fetal calf serum, 10% DMSO, and frozen. Before usage, the cells are thawed.
For transfection experiments, 2×10^5 human PBMCs per well were seeded into each well of a 96-well plate in X-Vivo 15 medium (Lonza). For preparation of DOTAP complexes containing both immunostimulatory non-coding RNA and a 2′-O-methylated oligonucleotide (SEQ ID NO: 85), the oligonucleotide was first added to immunostimulatory non-coding RNA at a weight percentage of 25%. For preparation of DOTAP complexes containing both PpLuc mRNA and a 2′-O-methylated oligonucleotide, the oligonucleotide was first added to PpLuc mRNA at a weight percentage of 25%. The molar ratio of PpLuc mRNA to oligonucleotide was thus […] (MW (Oligonucleotide)=2907 g/mol, MW (PpLuc mRNA)=652377 g/mol). DOTAP complexes containing either immunostimulatory non-coding RNA or PpLuc mRNA without or with oligonucleotide were formed at a ratio of 3 μl of DOTAP per 1 μg of RNAdjuvant or 1 μg of mRNA. […] To quantify background stimulation, PBMC were incubated either with DOTAP alone (“vehicle”) or medium only. […]
In supernatants collected from PBMC stimulated without or with 2-O-methylated oligonucleotide, the concentrations of IFN-α, IFN-γ, TNF, were measured by Cytometric Bead Array (CBA) according to the manufacturer's instructions (BD Biosciences) using the following kits: Human Soluble Protein Master Buffer Kit (catalog no. 558264), Assay Diluent (catalog no. 560104), Human IFN-α Flex Set (catalog no. 560379), Human IFN-γ Flex Set (catalog no. 558269), Human TNF Flex Set (catalog no. 560112); all kits from BD Biosciences. The data was analyzed using the FCAP Array v3.0 software (BD Biosciences).

[2] = test system: mice (strain 129SV); assay: Serum IFNα by ELISA 24 hours post LNP injection; format: in vivo, mouse; settings: 24 hours post i.v. LNP injection, in a dose-dependent manner (oligo 20% or 6.7% mass), compared to PpLuc mRNA only (FIG. 4B)
Method: For preparation of Lipid nanoparticles (LNP) containing both PpLuc mRNA and 2-O-methylated oligonucleotide, first the 2′-O-methylated oligonucleotide was added to PpLuc mRNA at a weight percentage of either 20% or 6.7% (see Table 3). LNP containing PpLuc mRNA either with or without admixture of 2-O-methylated oligonucleotide were prepared using cationic lipid, cholesterol, PEG-lipid and a neutral lipid. The mRNA was diluted to 1 g/L in citrate buffer, pH 4. The ethanolic lipid solution was mixed with the aqueous RNA solution at a ratio of 1:3 (vol/vol) using a Nanoassemblr (PrecisionNanoSystems). The ethanol was then removed and the buffer replaced by 10 mM HEPES, pH 7.4 comprising 9% Sucrose by dialysis. […] To analyse the influence of the 2′-O-methylated oligonucleotide on immunostimulation, the concentrations of IFNγ, TNFα, IL-6, MIP-1β, RANTES, and MCP1 were measured in sera from blood collected 6 hours post LNP injection by Cytometric Bead Array (CBA), performed as described in paragraph 2.3. […] To further assess the influence of the 2′-O-methylated oligonucleotide on immunostimulation, the concentration of IFNα was measured in sera from blood collected 24 hours post LNP injection by ELISA.

## 5′-GAG CGmG CCA-3′ (GAGCNGCCA; 2'-O-methyl guanosine at position 5; 9mer oligonucleotide; modified_base (5)..(5) n can be any nucleotide, wherein the nucleotide is 2-O-methylated, preferably a 2-O-methylated guanosine) [Gm18, 9-mer 2′-O-methylated RNA oligonucleotide; position 5 is 2′-O-methylated guanosine (Gm); antagonist of TLR7 and 8]
[1]
  secretion of cytokine INF-a: reduced secretion
  secretion of cytokine INF-y: reduced secretion
  secretion of cytokine TNF: reduced secretion
[2]
  release of IFNα in sera (ELISA): strongly decreases the release
